Assay results taken from the supplement of paper PMC10307832.

Columns and labels:
Test in all cases: relative viability (nuclei count vs DMSO), 5 days (fraction); higher = more cells survive
[1] = compound: CC1(C)CNc2cc(NC(=O)c3cccnc3NCc3ccncc3)ccc21 [Motesanib] + C[C@]1(O)C[C@@H](c2nc(-c3ccc4ccc(-c5ccccc5)nc4c3)c3c(N)nccn32)C1 [Linsitinib] (partner 1 µM)
Outline: (§1)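 A single step with final 0.05% Triton X-100, 1% formaldehyde and 1 ug/ml Hoechst fixed the cells and stained nuclei 5 days after treatment. Lung cancer cell lines in 1536-well plates had been treated by pin tool the day after seeding with one drug alone or a fixed anchor-drug dose plus five library-drug doses (not always all listed) in √10 steps, and nuclei were counted on 4× images. Relative viability is the ratio of nuclei in treated wells to nuclei in vehicle wells, taken as the median of duplicate plates.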

[2] = compound: C[C@@]1(C(=O)Nc2ccc(F)nc2)CCCN1c1nc(Nc2cc(C3CC3)n[nH]2)c2cccn2n1 + C[C@@H](Oc1cc(-c2cnn(C3CCNCC3)c2)cnc1N)c1c(Cl)ccc(F)c1Cl [Crizotinib] (partner 1 µM)
Outline: as §1

[3] = compound: C[C@@]1(C(=O)Nc2ccc(F)nc2)CCCN1c1nc(Nc2cc(C3CC3)n[nH]2)c2cccn2n1 + Nc1nc2[nH]cc(CCc3ccc(C(=O)N[C@@H](CCC(=O)O)C(=O)O)cc3)c2c(=O)[nH]1 [Pemetrexed] (partner 0.2 µM)
Outline: as §1

[4] = compound: C[C@@]1(C(=O)Nc2ccc(F)nc2)CCCN1c1nc(Nc2cc(C3CC3)n[nH]2)c2cccn2n1 + O=C(c1cc(Cc2n[nH]c(=O)c3ccccc23)ccc1F)N1CCN(C(=O)C2CC2)CC1 [Olaparib] (partner 8 µM)
Outline: as §1

Cell Line	relative viability ([1]; first compound 0.01 µM)	relative viability ([1]; first compound 0.03162 µM)	relative viability ([1]; first compound 0.1 µM)	relative viability ([1]; first compound 0.3162 µM)	relative viability ([1]; first compound 1 µM)	relative viability ([2]; first compound 0.04 µM)	relative viability ([2]; first compound 0.1265 µM)	relative viability ([2]; first compound 0.4 µM)	relative viability ([2]; first compound 1.265 µM)	relative viability ([3]; first compound 0.04 µM)	relative viability ([3]; first compound 0.1265 µM)	relative viability ([3]; first compound 0.4 µM)	relative viability ([3]; first compound 1.265 µM)	relative viability ([4]; first compound 0.04 µM)	relative viability ([4]; first compound 0.1265 µM)	relative viability ([4]; first compound 0.4 µM)	relative viability ([4]; first compound 1.265 µM)
A-427	1.06	1.11	1.07	1.22	1.22	0.853	0.848	0.674	0.882	0.989	0.939	0.927	0.813	0.666	0.663	0.603	0.529
NCI-H2347	0.985	1.01	1.06	1	1	0.706	0.75	0.629	0.569	0.437	0.415	0.436	0.416	0.536	0.569	0.48	0.524
NCI-H1355	0.792	0.75	0.801	0.865	0.834	0.896	0.824	0.728	1.02	1.01	0.957	0.826	0.953	0.661	0.59	0.561	0.572
NCI-H358	0.7	0.818	0.712	0.785	0.905	0.474	0.394	0.241	0.216	0.15	0.155	0.117	0.137	0.477	0.311	0.183	0.233
PC-3 [JPC-3]	1.05	0.969	0.946	1.04	0.944	1.03	0.921	0.905	1.01	1.19	1.03	1.04	0.839	1.23	0.798	1.04	1.1
NCI-H2228	0.685	0.544	0.689	0.5	0.509	0.395	0.342	0.262	0.255	0.388	0.355	0.317	0.286	0.767	0.503	0.426	0.32
HOP-62	0.732	0.956	0.806	1.05	1.03	0.896	0.96	0.888	0.981	0.294	0.297	0.315	0.341	0.39	0.172	0.386	0.404
HARA	0.967	0.909	1.02	1.09	1.14	1.02	0.995	1.21	1.1	0.222	0.241	0.227	0.228	0.81	0.74	0.59	0.656
NCI-H838	1.05	1.09	1.06	1.08	1.07	0.868	0.67	0.621	0.708	0.234	0.233	0.216	0.215	0.726	0.636	0.555	0.388
